Source: patent US6429212B1, “Medicinal composition” (Ishihara Sangyo Kaisha Ltd., priority 1996, dated 2002)

Key:
[1] = target: T1, human platelet derived endothelial cell growth factor (thymidine phosphorylase) (Homo sapiens, UniProt P19971); assay: Inhibitory activity to platelet derived endothelial cell growth factor (thymidine phosphorylase); format: biochemical; conditions: 37° C., 90 minutes, pH 5.6, absorbance at 300 nm; from 0.1, 1, 10 and 100 μg/ml
T1 construct: purchased Sigma
T1 sequence (P19971 11-482): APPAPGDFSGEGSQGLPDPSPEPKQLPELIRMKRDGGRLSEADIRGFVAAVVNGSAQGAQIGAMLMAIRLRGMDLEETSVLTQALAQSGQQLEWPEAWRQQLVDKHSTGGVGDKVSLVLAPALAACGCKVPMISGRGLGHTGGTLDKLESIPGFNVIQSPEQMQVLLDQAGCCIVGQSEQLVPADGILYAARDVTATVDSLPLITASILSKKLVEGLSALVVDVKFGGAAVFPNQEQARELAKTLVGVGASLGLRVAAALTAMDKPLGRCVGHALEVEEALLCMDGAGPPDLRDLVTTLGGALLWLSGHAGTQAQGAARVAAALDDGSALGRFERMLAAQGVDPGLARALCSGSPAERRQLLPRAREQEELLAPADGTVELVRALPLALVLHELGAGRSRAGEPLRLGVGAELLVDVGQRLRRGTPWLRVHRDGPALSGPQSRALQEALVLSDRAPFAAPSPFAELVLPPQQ
Experimental: (1) 100 mmol/l of thymidine (produced by Wako Pure Chemical Industries, Ltd.), 500 mmol/l of K2HPO4 (produced by Nacalai Tesque) and 0.5 mol/l of 2-morpholinoethansulfonic acid.H2O (pH 5.6; produced by Dojindo Laboratories) were prepared.
(2) The compound of the general formula (I) was dissolved in dimethylsulfoxide solution having a concentration of at most 10%, to prepare a test sample having a concentration of the compound of the general formula (I) of 1.0 mg/ml.
(3) 5 μg/ml of human platelet derived endothelial cell growth factor (produced by Sigma) was prepared. […]
(6) Absorbance of the solution for measurement was measured by using a spectrophotometer (SPECTRA max 250: produced by Molecular Devices) at a wavelength of 300 nm.
(7) Sterile water was added to 100 μl of buffer solution having 0.5 mol/l of 2-morpholinoethansulfonic acid.H2O (pH 5.6) and 20 μl of the test sample having a concentration of the compound of the general formula (I) of 1.0 mg/ml, so that the total amount was 200 μl, to prepare a solution of the compound of the general formula (I) having a final concentration of 100 μg/ml. Absorbance of a liquid having 50 μl of 2N-NaOH added to 50 μl of the solution, as a sample for measuring background, was measured at a wavelength of 300 nm. […]

aminopeptidase N = aminopeptidase N (Homo sapiens, UniProt P15144); assay: Inhibitory effect to aminopeptidase N (L-alanine-7-amido-4-methylcoumarin substrate, MOLT-4 cells, fluorescence); format: biochemical; conditions: based on fluorescence intensity of the control fraction (Table 13, Test Example 9)
Chain of aminopeptidase N (P15144 2-967): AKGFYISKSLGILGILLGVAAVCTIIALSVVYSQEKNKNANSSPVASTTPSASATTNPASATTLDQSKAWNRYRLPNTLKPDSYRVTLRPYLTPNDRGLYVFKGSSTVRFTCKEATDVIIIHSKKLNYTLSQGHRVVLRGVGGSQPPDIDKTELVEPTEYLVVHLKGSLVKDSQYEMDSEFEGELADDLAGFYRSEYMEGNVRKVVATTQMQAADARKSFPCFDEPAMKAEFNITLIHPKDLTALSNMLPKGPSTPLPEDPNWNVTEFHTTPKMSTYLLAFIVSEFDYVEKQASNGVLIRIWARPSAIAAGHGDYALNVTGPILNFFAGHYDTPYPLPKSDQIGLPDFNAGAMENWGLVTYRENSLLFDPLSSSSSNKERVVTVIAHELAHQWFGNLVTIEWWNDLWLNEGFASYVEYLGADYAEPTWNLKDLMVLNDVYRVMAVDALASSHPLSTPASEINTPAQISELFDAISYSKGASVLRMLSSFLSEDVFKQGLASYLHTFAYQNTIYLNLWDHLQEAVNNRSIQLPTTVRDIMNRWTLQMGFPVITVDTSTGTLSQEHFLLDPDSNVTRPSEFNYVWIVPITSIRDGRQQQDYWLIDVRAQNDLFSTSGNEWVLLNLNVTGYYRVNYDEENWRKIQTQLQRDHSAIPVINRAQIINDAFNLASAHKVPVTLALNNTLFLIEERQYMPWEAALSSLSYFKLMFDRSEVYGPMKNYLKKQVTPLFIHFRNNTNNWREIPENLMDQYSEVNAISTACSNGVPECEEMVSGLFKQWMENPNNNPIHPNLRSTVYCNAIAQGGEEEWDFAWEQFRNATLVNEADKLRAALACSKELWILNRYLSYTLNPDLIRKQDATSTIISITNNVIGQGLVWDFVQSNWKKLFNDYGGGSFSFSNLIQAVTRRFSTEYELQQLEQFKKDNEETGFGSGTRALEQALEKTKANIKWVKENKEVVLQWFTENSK
Experimental: As the substrate buffer solution, 100 mM Hepes buffer solution pH 7.6 (including 120 mM sodium chloride, 5 mM potassium chloride, 1.2 mM magnesium sulfate and 0.5% bovine serum albumin) was used. After the reaction was finished, fluorescence intensity was measured by using MTP-32 Colonna microplate reader (produced by Colonna Electric) under measurement condition at an excitation wavelength of 380 nm and at an emission wavelength of 440 nm. […] The values in the Table are based on fluorescence intensity of the control fraction, and represent the enzyme-inhibitory activity as IC50 (μg/ml).

Row | IC50 [1] [µM] | Aminopeptidase N inhibiting activity IC50 (aminopeptidase N) [µg/mL] | Structure (SMILES)
1 | 230 |  | Cc1cccc(C)c1N1C(=O)Cc2ccccc2C1=O [Compound A-2, N-(2,6-dimethylphenyl)-homophthalimide]
2 | 160 |  | O=C1Cc2ccccc2C(=O)N1c1ccccc1 [Compound A-1, N-phenyl-homophthalimide]
3 |  | 38 | CSc1ccccc1N1C(=O)c2cccc(O)c2C1=O [Compound 194]
